Experiments:
Assay in all cases: radiometric filter-binding kinase assay, Kinase HotSpot
Conditions in all cases: compound 0.5 µM; ATP 10 µM
NUAK2 (human) = NUAK2 (human) (UniProt Q9H093)
MAPK13 (human) = MAPK13 (human) (UniProt O15264)
STK25 (human) = STK25 (human) (UniProt O00506)
NUAK1 (human) = NUAK1 (human) (UniProt O60285)
EPHA5 (human) = EPHA5 (human) (UniProt P54756)
MAP3K14 (human) = MAP3K14 (human) (UniProt Q99558)
ADRBK2 (human) = ADRBK2 (human) (UniProt P35626)
PRKCZ (human) = PRKCZ (human) (UniProt Q05513)
CLK2 (human) = CLK2 (human) (UniProt P49760)
CSF1R (human) = CSF1R (human) (UniProt P07333)
IKBKE (human) = IKBKE (human) (UniProt Q14164)
FGR (human) = FGR (human) (UniProt P09769)
PRKD1 (human) = PRKD1 (human) (UniProt Q15139)
Sequence of PRKD1 (human) (Q15139 whole entry, looked up): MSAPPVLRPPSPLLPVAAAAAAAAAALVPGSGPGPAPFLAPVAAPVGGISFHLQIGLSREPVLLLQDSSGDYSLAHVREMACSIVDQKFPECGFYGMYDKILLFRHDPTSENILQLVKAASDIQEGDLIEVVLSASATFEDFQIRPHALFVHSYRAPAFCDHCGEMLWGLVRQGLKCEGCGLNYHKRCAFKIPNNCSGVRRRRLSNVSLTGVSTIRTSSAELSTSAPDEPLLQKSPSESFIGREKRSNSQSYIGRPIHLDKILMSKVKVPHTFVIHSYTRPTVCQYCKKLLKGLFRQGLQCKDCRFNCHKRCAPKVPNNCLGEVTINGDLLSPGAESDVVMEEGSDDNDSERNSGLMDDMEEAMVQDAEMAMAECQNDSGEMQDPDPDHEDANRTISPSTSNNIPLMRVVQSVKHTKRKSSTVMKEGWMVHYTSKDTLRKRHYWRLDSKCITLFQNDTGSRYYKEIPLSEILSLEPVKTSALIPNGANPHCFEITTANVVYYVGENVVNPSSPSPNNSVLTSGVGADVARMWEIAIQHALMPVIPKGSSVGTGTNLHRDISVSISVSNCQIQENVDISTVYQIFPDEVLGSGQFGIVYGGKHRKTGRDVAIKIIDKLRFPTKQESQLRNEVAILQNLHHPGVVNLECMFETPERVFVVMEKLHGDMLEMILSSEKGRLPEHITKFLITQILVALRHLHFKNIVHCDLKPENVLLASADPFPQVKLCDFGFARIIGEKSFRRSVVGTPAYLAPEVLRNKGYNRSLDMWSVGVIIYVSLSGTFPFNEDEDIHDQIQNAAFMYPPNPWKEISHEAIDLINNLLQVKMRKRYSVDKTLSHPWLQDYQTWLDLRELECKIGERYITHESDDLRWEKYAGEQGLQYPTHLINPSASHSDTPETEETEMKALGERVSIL

PLK2 (human) = PLK2 (human) (UniProt Q9NYY3)
MAPK10 (human) = MAPK10 (human) (UniProt P53779)
MAPK8 (human) = MAPK8 (human) (UniProt P45983)
CDK1 CCNA2 (human) = CDK1 CCNA2 (human) (UniProt P06493+P20248)
FER (human) = FER (human) (UniProt P16591)
PTK2B (human) = PTK2B (human) (UniProt Q14289)
CHEK2 (human) = CHEK2 (human) (UniProt O96017)
Sequence of CHEK2 (human) (O96017 whole entry, looked up): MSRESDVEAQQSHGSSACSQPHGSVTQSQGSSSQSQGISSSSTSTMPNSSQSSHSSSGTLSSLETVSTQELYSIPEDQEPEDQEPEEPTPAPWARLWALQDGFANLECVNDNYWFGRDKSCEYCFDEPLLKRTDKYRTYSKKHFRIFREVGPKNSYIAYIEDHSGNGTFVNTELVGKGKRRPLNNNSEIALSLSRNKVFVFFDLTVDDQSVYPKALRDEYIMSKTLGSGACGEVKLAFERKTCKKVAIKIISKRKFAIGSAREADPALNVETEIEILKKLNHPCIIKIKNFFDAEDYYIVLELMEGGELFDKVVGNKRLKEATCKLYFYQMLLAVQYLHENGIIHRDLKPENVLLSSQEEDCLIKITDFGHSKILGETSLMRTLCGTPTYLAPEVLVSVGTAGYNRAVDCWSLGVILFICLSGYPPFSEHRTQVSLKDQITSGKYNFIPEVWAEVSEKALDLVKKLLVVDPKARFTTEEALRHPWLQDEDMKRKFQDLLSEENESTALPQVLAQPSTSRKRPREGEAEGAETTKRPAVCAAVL

GRK5 (human) = GRK5 (human) (UniProt P34947)
TTK (human) = TTK (human) (UniProt P33981)
CDK1 CCNB1 (human) = CDK1 CCNB1 (human) (UniProt P06493+P14635)
CAMK1D (human) = CAMK1D (human) (UniProt Q8IU85)
CDK6 CCND3 (human) = CDK6 CCND3 (human) (UniProt P30281+Q00534)
Sequence of CDK6 CCND3 (human) (P30281 whole entry, looked up): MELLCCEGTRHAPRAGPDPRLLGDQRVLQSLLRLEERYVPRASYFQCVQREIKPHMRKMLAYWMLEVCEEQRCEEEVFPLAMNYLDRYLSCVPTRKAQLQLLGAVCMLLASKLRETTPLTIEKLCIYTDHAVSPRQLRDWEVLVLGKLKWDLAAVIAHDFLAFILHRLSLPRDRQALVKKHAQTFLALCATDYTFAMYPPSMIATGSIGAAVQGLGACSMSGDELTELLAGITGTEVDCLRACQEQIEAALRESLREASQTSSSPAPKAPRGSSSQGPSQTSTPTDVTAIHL
Sequence of CDK6 CCND3 (human) (Q00534 whole entry, looked up): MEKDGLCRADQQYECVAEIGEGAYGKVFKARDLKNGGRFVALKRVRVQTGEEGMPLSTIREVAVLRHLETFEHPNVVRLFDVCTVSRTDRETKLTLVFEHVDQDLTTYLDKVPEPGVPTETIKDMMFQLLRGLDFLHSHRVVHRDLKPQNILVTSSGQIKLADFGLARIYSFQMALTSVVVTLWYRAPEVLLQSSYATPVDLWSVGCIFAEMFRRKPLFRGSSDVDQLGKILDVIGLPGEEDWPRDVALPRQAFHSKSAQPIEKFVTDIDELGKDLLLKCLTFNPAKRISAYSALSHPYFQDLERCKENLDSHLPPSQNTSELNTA

ALK (human) = ALK (human) (UniProt Q9UM73)
CSNK1G2 (human) = CSNK1G2 (human) (UniProt P78368)
NTRK2 (human) = NTRK2 (human) (UniProt Q16620)
WNK2 (human) = WNK2 (human) (UniProt Q9Y3S1)
PRKCB2 (human) = PRKCB2 (human) (UniProt P05771)
PRKCB1 (human) = PRKCB1 (human) (UniProt P05771)
NTRK3 (human) = NTRK3 (human) (UniProt Q16288)
MAPK14 (human) = MAPK14 (human) (UniProt Q16539)
Sequence of MAPK14 (human) (Q16539 whole entry, looked up): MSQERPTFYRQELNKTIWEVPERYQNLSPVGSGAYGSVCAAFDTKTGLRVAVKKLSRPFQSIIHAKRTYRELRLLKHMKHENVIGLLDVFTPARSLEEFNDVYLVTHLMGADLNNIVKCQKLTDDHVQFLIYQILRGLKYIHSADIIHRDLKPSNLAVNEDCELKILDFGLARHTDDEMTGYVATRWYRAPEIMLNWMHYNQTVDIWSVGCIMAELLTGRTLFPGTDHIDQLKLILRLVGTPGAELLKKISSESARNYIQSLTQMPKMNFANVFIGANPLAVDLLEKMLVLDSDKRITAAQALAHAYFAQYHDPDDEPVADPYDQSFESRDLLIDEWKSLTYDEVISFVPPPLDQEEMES

HIPK4 (human) = HIPK4 (human) (UniProt Q8NE63)
EPHA2 (human) = EPHA2 (human) (UniProt P29317)
RPS6KA3 KD1 KD2 (human) = RPS6KA3 KD1 KD2 (human) (UniProt P51812)
MATK (human) = MATK (human) (UniProt P42679)
PAK6 (human) = PAK6 (human) (UniProt Q9NQU5)
PTK6 (human) = PTK6 (human) (UniProt Q13882)
AKT3 (human) = AKT3 (human) (UniProt Q9Y243)
Sequence of AKT3 (human) (Q9Y243 whole entry, looked up): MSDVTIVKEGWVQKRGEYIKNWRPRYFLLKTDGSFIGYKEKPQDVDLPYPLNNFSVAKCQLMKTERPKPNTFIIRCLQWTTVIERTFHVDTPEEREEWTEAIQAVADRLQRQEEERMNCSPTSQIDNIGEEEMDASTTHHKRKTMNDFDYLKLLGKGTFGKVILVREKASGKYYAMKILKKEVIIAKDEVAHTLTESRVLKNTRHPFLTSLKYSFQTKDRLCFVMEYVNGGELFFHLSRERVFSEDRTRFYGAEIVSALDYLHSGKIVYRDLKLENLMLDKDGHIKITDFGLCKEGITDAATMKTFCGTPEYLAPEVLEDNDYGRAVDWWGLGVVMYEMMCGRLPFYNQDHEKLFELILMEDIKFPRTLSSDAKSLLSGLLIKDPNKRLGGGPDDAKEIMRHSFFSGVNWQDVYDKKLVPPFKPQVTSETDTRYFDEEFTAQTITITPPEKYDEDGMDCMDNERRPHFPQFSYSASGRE

TYRO3 (human) = TYRO3 (human) (UniProt Q06418)
Sequence of TYRO3 (human) (Q06418 whole entry, looked up): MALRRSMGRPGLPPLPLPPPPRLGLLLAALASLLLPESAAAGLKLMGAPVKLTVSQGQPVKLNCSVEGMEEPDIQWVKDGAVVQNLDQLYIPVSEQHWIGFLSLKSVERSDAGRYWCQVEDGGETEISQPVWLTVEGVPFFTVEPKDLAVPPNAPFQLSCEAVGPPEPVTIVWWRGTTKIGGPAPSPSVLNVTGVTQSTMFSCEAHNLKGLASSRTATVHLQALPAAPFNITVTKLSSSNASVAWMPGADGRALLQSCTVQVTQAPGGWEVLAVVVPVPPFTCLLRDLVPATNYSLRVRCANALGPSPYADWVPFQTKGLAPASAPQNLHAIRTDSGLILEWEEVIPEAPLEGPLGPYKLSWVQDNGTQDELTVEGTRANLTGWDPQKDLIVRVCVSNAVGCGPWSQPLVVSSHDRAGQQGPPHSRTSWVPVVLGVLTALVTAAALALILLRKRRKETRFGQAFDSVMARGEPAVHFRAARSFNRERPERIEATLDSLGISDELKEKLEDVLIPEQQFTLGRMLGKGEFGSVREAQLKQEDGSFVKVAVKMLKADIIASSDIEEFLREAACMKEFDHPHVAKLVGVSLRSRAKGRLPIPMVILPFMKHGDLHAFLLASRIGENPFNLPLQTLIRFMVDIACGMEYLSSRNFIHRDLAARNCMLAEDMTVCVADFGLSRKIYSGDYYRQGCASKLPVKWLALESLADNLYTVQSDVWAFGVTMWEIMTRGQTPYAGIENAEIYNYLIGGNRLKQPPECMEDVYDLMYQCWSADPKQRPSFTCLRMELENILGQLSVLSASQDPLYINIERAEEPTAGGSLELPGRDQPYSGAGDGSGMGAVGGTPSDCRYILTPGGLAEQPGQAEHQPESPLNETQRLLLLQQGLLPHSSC

ROCK2 (human) = ROCK2 (human) (UniProt O75116)

Sequence of ADRBK2 (human) (P35626 whole entry, looked up): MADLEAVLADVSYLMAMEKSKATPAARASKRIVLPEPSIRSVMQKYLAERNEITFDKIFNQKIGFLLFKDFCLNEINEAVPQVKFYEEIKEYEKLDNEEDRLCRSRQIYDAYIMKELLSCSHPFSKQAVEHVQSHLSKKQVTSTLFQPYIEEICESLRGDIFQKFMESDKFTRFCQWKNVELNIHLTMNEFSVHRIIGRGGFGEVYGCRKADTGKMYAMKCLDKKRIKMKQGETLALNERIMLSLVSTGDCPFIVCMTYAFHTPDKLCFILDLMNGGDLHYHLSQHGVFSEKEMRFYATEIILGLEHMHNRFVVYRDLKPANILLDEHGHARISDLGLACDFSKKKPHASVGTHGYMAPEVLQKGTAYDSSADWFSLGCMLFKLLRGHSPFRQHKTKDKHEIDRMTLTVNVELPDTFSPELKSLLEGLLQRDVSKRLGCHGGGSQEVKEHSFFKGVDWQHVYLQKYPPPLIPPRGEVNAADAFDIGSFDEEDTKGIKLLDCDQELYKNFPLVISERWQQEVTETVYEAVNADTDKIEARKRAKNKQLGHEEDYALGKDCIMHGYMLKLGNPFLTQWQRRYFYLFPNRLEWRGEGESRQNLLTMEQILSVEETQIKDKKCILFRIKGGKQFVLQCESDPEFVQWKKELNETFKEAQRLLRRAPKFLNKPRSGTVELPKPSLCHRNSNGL
Sequence of STK25 (human) (O00506 whole entry, looked up): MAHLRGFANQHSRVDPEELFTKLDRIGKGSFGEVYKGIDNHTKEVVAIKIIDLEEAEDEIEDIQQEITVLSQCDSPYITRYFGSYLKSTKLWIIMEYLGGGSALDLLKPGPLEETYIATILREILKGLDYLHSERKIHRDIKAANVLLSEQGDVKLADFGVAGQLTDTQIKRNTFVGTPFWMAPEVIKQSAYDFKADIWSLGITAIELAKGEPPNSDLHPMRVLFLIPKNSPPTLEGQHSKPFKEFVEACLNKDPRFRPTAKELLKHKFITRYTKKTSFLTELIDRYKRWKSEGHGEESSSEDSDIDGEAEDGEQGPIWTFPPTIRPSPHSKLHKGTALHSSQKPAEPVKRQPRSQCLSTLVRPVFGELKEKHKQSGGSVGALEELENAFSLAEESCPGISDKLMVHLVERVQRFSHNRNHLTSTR

CN(C)C[C@H]1CCn2c(c(C3=C(c4cn(C)c5ccccc45)C(=O)NC3=O)c3ccccc32)C1
residual activity (NUAK2 (human)): 121%
residual activity (MAPK13 (human)): 117%
residual activity (STK25 (human)): 96%
residual activity (NUAK1 (human)): 90.9%
residual activity (EPHA5 (human)): 95.1%
residual activity (MAP3K14 (human)): 105%
residual activity (ADRBK2 (human)): 102%
residual activity (PRKCZ (human)): 31%
residual activity (CLK2 (human)): 85.9%
residual activity (CSF1R (human)): 98.1%
residual activity (IKBKE (human)): 78.8%
residual activity (FGR (human)): 97.2%
residual activity (PRKD1 (human)): 101%
residual activity (PLK2 (human)): 99.9%
residual activity (MAPK10 (human)): 101%
residual activity (MAPK8 (human)): 100%
residual activity (CDK1 CCNA2 (human)): 67.8%
residual activity (FER (human)): 69.2%
residual activity (PTK2B (human)): 95.5%
residual activity (CHEK2 (human)): 95%
residual activity (GRK5 (human)): 56.2%
residual activity (TTK (human)): 105%
residual activity (CDK1 CCNB1 (human)): 53.7%
residual activity (CAMK1D (human)): 101%
residual activity (CDK6 CCND3 (human)): 95%
residual activity (ALK (human)): 99.6%
residual activity (CSNK1G2 (human)): 97%
residual activity (NTRK2 (human)): 102%
residual activity (WNK2 (human)): 103%
residual activity (PRKCB2 (human)): 2.29%
residual activity (PRKCB1 (human)): 3.71%
residual activity (NTRK3 (human)): 75%
residual activity (MAPK14 (human)): 108%
residual activity (HIPK4 (human)): 95.7%
residual activity (EPHA2 (human)): 102%
residual activity (RPS6KA3 KD1 KD2 (human)): 1.81%
residual activity (MATK (human)): 95%
residual activity (PAK6 (human)): 114%
residual activity (PTK6 (human)): 90.4%
residual activity (AKT3 (human)): 56.3%
residual activity (TYRO3 (human)): 99.3%
residual activity (ROCK2 (human)): 98.9%

O=C1NC(=O)/C(=C\c2ccc3nccnc3c2)S1
residual activity (NUAK2 (human)): 76%
residual activity (MAPK13 (human)): 99.1%
residual activity (STK25 (human)): 99.3%
residual activity (NUAK1 (human)): 92.8%
residual activity (EPHA5 (human)): 99.5%
residual activity (MAP3K14 (human)): 101%
residual activity (ADRBK2 (human)): 111%
residual activity (PRKCZ (human)): 103%
residual activity (CLK2 (human)): 74%
residual activity (CSF1R (human)): 110%
residual activity (IKBKE (human)): 99.5%
residual activity (FGR (human)): 96.8%
residual activity (PRKD1 (human)): 94.8%
residual activity (PLK2 (human)): 95.7%
residual activity (MAPK10 (human)): 96%
residual activity (MAPK8 (human)): 91.5%
residual activity (CDK1 CCNA2 (human)): 90.7%
residual activity (FER (human)): 96.2%
residual activity (PTK2B (human)): 106%
residual activity (CHEK2 (human)): 90.3%
residual activity (GRK5 (human)): 105%
residual activity (TTK (human)): 102%
residual activity (CDK1 CCNB1 (human)): 93.8%
residual activity (CAMK1D (human)): 102%
residual activity (CDK6 CCND3 (human)): 95.8%
residual activity (ALK (human)): 93.3%
residual activity (CSNK1G2 (human)): 83.4%
residual activity (NTRK2 (human)): 90.7%
residual activity (WNK2 (human)): 115%
residual activity (PRKCB2 (human)): 103%
residual activity (PRKCB1 (human)): 96.9%
residual activity (NTRK3 (human)): 95.3%
residual activity (MAPK14 (human)): 92.9%
residual activity (HIPK4 (human)): 95%
residual activity (EPHA2 (human)): 99.9%
residual activity (RPS6KA3 KD1 KD2 (human)): 101%
residual activity (MATK (human)): 90.5%
residual activity (PAK6 (human)): 107%
residual activity (PTK6 (human)): 95.1%
residual activity (AKT3 (human)): 104%
residual activity (TYRO3 (human)): 99.1%
residual activity (ROCK2 (human)): 91.3%

Cc1nc2cc3nc(-c4cccs4)cnc3cc2n1C
residual activity (NUAK2 (human)): 96.7%
residual activity (MAPK13 (human)): 99.7%
residual activity (STK25 (human)): 97.3%
residual activity (NUAK1 (human)): 95.3%
residual activity (EPHA5 (human)): 105%
residual activity (MAP3K14 (human)): 97.4%
residual activity (ADRBK2 (human)): 99.2%
residual activity (PRKCZ (human)): 95.6%
residual activity (CLK2 (human)): 95.3%
residual activity (CSF1R (human)): 63.5%
residual activity (IKBKE (human)): 89.8%
residual activity (FGR (human)): 89.3%
residual activity (PRKD1 (human)): 97.7%
residual activity (PLK2 (human)): 99.4%
residual activity (MAPK10 (human)): 96.3%
residual activity (MAPK8 (human)): 93.7%
residual activity (CDK1 CCNA2 (human)): 102%
residual activity (FER (human)): 104%
residual activity (PTK2B (human)): 96.4%
residual activity (CHEK2 (human)): 94.6%
residual activity (GRK5 (human)): 108%
residual activity (TTK (human)): 92.6%
residual activity (CDK1 CCNB1 (human)): 96.7%
residual activity (CAMK1D (human)): 107%
residual activity (CDK6 CCND3 (human)): 87.8%
residual activity (ALK (human)): 99.8%
residual activity (CSNK1G2 (human)): 103%
residual activity (NTRK2 (human)): 64.7%
residual activity (WNK2 (human)): 123%
residual activity (PRKCB2 (human)): 121%
residual activity (PRKCB1 (human)): 107%
residual activity (NTRK3 (human)): 59.9%
residual activity (MAPK14 (human)): 97.5%
residual activity (HIPK4 (human)): 103%
residual activity (EPHA2 (human)): 107%
residual activity (RPS6KA3 KD1 KD2 (human)): 96.3%
residual activity (MATK (human)): 100%
residual activity (PAK6 (human)): 96.6%
residual activity (PTK6 (human)): 88.6%
residual activity (AKT3 (human)): 112%
residual activity (TYRO3 (human)): 103%
residual activity (ROCK2 (human)): 107%

O=C(Nc1cccc(Nc2cc(Nc3cccc(C(F)(F)F)c3)ncn2)c1)C1CC1
residual activity (NUAK2 (human)): 103%
residual activity (MAPK13 (human)): 106%
residual activity (STK25 (human)): 97.4%
residual activity (NUAK1 (human)): 102%
residual activity (EPHA5 (human)): 106%
residual activity (MAP3K14 (human)): 77.9%
residual activity (ADRBK2 (human)): 103%
residual activity (PRKCZ (human)): 104%
residual activity (CLK2 (human)): 97.3%
residual activity (CSF1R (human)): 99.9%
residual activity (IKBKE (human)): 97.7%
residual activity (FGR (human)): 96.4%
residual activity (PRKD1 (human)): 100%
residual activity (PLK2 (human)): 109%
residual activity (MAPK10 (human)): 83.4%
residual activity (MAPK8 (human)): 93.4%
residual activity (CDK1 CCNA2 (human)): 97.9%
residual activity (FER (human)): 102%
residual activity (PTK2B (human)): 89.6%
residual activity (CHEK2 (human)): 99.5%
residual activity (GRK5 (human)): 109%
residual activity (TTK (human)): 98.7%
residual activity (CDK1 CCNB1 (human)): 96.4%
residual activity (CAMK1D (human)): 100%
residual activity (CDK6 CCND3 (human)): 102%
residual activity (ALK (human)): 112%
residual activity (CSNK1G2 (human)): 99.1%
residual activity (NTRK2 (human)): 100%
residual activity (WNK2 (human)): 109%
residual activity (PRKCB2 (human)): 107%
residual activity (PRKCB1 (human)): 93.2%
residual activity (NTRK3 (human)): 95.1%
residual activity (MAPK14 (human)): 98.2%
residual activity (HIPK4 (human)): 101%
residual activity (EPHA2 (human)): 104%
residual activity (RPS6KA3 KD1 KD2 (human)): 105%
residual activity (MATK (human)): 96.1%
residual activity (PAK6 (human)): 99.3%
residual activity (PTK6 (human)): 98.4%
residual activity (AKT3 (human)): 99.4%
residual activity (TYRO3 (human)): 85.4%
residual activity (ROCK2 (human)): 99.2%

From the kinase profiling compilation of Christmann-Franck et al. (2016)
